Patent US20260015350A1, “AZAQUINAZOLINE PAN-KRAS INHIBITORS” (Mirati Therapeutics, Inc., priority 2022, published 2026)

How the values were obtained:
KRas^G12C = target: T1, KRas^G12C (Homo sapiens, UniProt P01116, G12C); assay: KRas binding assay (TR-FRET tracer displacement), KRas G12C; conditions: TR-FRET tracer displacement, KRas G12C
T1 construct: Biotinylated KRas (corresponding to amino acids 1-169, produced at Accelegan Inc.); biotin (biotinylated); purchased Accelegan Inc

KRas^G12V = target: T2, KRas^G12V (Homo sapiens, UniProt P01116, G12V); assay: KRas binding assay (TR-FRET tracer displacement), KRas G12V
T2 construct: Biotinylated KRas (corresponding to amino acids 1-169, produced at Accelegan Inc.); biotin (biotinylated); purchased Accelegan Inc
T2 sequence (P01116 1-169 isoform P01116-2 G12V): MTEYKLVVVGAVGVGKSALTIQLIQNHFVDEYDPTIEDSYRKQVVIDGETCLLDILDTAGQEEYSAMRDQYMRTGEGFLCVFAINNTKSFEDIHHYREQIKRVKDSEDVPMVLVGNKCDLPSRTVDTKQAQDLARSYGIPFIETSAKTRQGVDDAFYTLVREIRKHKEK

KRas^G12S = target: T3, KRas^G12S (Homo sapiens, UniProt P01116, G12S); assay: KRas binding assay (TR-FRET tracer displacement), KRas G12S; conditions: TR-FRET tracer displacement, KRas G12S
T3 construct: Biotinylated KRas (corresponding to amino acids 1-169, produced at Accelegan Inc.); biotin (biotinylated); purchased Accelegan Inc
T3 sequence (P01116 1-169 isoform P01116-2 G12S): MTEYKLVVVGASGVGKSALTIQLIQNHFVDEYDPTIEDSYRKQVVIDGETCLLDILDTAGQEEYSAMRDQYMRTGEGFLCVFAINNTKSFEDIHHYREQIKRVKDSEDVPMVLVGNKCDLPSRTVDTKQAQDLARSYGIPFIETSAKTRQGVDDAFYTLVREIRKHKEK

KRas^WT = target: T4, KRas^WT (Homo sapiens, UniProt P01116); assay: KRas binding assay (TR-FRET tracer displacement), KRas WT; conditions: TR-FRET tracer displacement, KRas WT
T4 construct: Biotinylated KRas (corresponding to amino acids 1-169, produced at Accelegan Inc.); biotin (biotinylated); purchased Accelegan Inc
T4 sequence (P01116 1-169 isoform P01116-2): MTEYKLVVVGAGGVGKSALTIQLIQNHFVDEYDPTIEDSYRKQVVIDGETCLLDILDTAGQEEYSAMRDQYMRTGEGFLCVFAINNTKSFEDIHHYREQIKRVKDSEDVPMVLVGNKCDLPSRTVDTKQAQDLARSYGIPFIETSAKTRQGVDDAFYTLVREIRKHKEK

KRas^G12D = target: T5, KRas^G12D (Homo sapiens, UniProt P01116, G12D); assay: KRas binding assay (TR-FRET tracer displacement), KRas G12D
T5 construct: Biotinylated KRas (corresponding to amino acids 1-169, produced at Accelegan Inc.); biotin (biotinylated); purchased Accelegan Inc
T5 sequence (P01116 1-169 isoform P01116-2 G12D): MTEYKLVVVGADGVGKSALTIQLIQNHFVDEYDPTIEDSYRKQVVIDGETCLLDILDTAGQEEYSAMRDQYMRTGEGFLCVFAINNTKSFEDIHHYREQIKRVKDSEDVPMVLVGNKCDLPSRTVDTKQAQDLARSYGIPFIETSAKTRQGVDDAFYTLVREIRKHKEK

[1] = system: KRas-mediated phosphorylation of ERK in HCT116 cells; assay: Inhibition of KRas-mediated phosphorylation of ERK (Cisbio HTRF pERK), HCT116 cells; type: cell-based; conditions: Homo sapiens; for IC50: HCT-116, HTRF pERK
How it was run: (§1)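 6,000 cells/well; cpd 10 uM top, 3-fold x10, 0.8% DMSO final; 3 hr incubation; Min ctrl Trametinib 0.2 uM; lysis 40 min 4° C shaking; d2 + Cryptate Ab mix, 2 hr RT; HTRF read.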

[2] = system: KRas-mediated phosphorylation of ERK in H727 cells; assay: Inhibition of KRas-mediated phosphorylation of ERK (Cisbio HTRF pERK), H727 cells; type: cell-based; conditions: Homo sapiens; for IC50: NCI-H727, H727 cells, HTRF pERK
How it was run: as §1

[3] = system: KRas-mediated phosphorylation of ERK in PSN1 cells; assay: Inhibition of KRas-mediated phosphorylation of ERK (Cisbio HTRF pERK), PSN1 cells; type: cell-based; conditions: Homo sapiens
How it was run: (§2)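 Phospho-ERK is quantified by HTRF with the Advanced pERK kit. Cells go in at 6,000/well in RPMI plus 10% FBS overnight at 37° C. under 5% CO2, with a 4-hour covered room-temperature incubation ahead of the read.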

KRas^G12R = target: T6, KRas^G12R (Homo sapiens, UniProt P01116, G12R); assay: KRas binding assay (TR-FRET tracer displacement), KRas G12R
T6 construct: Biotinylated KRas (corresponding to amino acids 1-169, produced at Accelegan Inc.); biotin (biotinylated); purchased Accelegan Inc
T6 sequence (P01116 1-169 isoform P01116-2 G12R): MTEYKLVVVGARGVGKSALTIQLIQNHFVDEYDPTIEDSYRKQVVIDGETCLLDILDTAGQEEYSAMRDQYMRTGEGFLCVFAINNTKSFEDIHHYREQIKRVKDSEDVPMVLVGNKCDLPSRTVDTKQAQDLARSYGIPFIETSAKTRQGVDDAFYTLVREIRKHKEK

[4] = system: KRas-mediated phosphorylation of ERK in AsPC-1 cells; assay: Inhibition of KRas-mediated phosphorylation of ERK (Cisbio HTRF pERK), AsPC-1 cells; type: cell-based; conditions: Homo sapiens; for IC50: ASPC1, AsPC-1 cells, HTRF pERK
How it was run: as §1

[5] = system: KRas-mediated phosphorylation of ERK in H460 cells; assay: Inhibition of KRas-mediated phosphorylation of ERK (Cisbio HTRF pERK), H460 cells; type: cell-based; conditions: Homo sapiens; for IC50: NCI-H460, HTRF pERK
How it was run: as §1

[6] = system: KRas-mediated phosphorylation of ERK in A549 cells; assay: Inhibition of KRas-mediated phosphorylation of ERK (Cisbio HTRF pERK), A549 cells; type: cell-based; conditions: Homo sapiens; for IC50: HTRF pERK
How it was run: as §1

[7] = system: KRas-mediated phosphorylation of ERK in MKN1 cells; assay: Inhibition of KRas-mediated phosphorylation of ERK (Cisbio HTRF pERK), MKN1 cells; type: cell-based; conditions: Homo sapiens, MKN-1
How it was run: as §2

[8] = system: KRas-mediated phosphorylation of ERK in H358 cells; assay: Inhibition of KRas-mediated phosphorylation of ERK (Cisbio HTRF pERK), H358 cells; type: cell-based; conditions: Homo sapiens; for IC50: NCI-H358, HTRF pERK
How it was run: as §1

T1 sequence (P01116 1-169 isoform P01116-2 G12C): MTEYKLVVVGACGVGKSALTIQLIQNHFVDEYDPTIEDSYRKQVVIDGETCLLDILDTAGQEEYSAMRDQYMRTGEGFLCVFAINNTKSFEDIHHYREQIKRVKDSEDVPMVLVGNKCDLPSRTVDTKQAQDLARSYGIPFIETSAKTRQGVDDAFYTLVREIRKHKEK

## CCc1c(F)ccc2cc(O)cc(-c3nc4c5c(nc(OC[C@@]67CCCN6C[C@H](F)C7)nc5c3F)NCCO4)c12 [Example 803, 5-ethyl-6-fluoro-4-(4-fluoro-2-(((2R,7aS)-2-fluorotetrahydro-1H-pyrrolizin-7a(5H)-yl)methoxy)-9,10-dihydro-8H-7-oxa-1,3,6,10-tetraazacyclohepta[de]naphthalen-5-yl)naphthalen-2-ol]
KRas^G12C
  IC50: 11 nM
KRas^G12V
  IC50: 9 nM
KRas^G12S
  IC50: 14 nM
KRas^WT
  IC50: 20 nM
KRas^G12D
  IC50: 14 nM

## CCc1c(F)ccc2cc(O)cc(-c3ncc4c(N5CC[C@H]6C(=O)O[C@H]6C5)nc(OC[C@@]56CCCN5C[C@H](F)C6)nc4c3F)c12 [Example 802, 3-(7-(8-ethyl-7-fluoro-3-hydroxynaphthalen-1-yl)-8-fluoro-2-(((2R,7aS)-2-fluorotetrahydro-1H-pyrrolizin-7a(5H)-yl)methoxy)pyrido[4,3-d]pyrimidin-4-yl)-8-oxa-3-azabicyclo[4.2.0]octan-7-one]
KRas^G12C
  IC50: 2 nM
[1]
  IC50: > 10000 nM
[2]
  IC50: > 10000 nM
KRas^G12V
  IC50: 116 nM
KRas^G12S
  IC50: 2 nM
[3]
  IC50: > 10000 nM
KRas^G12R
  IC50: 35 nM
[4]
  IC50: > 10000 nM
[5]
  IC50: > 10000 nM
[6]
  IC50: 12 nM
[7]
  IC50: > 10000 nM
[8]
  IC50: 32 nM
KRas^G12D
  IC50: 189 nM

## CCc1c(F)ccc2cc(O)cc(-c3ncc4c(N5CC6CCC(C5)C6(O)C(F)(F)F)nc(OC[C@@]56CCCN5C[C@H](F)C6)nc4c3F)c12 (stereo partly drawn) [Example 843, (1R,5S,8R)-3-(7-(8-ethyl-7-fluoro-3-hydroxynaphthalen-1-yl)-8-fluoro-2-(((2R,7aS)-2-fluorotetrahydro-1H-pyrrolizin-7a(5H)-yl)methoxy)pyrido[4,3-d]pyrimidin-4-yl)-8-(trifluoromethyl)-3-azabicyclo[3.2.1]octan-8-ol]
[1]
  IC50: 305 nM
[2]
  IC50: 5300 nM
KRas^G12V
  IC50: 79 nM
[3]
  IC50: > 10000 nM
KRas^G12R
  IC50: 26 nM
[4]
  IC50: 6230 nM
[5]
  IC50: 162 nM
[6]
  IC50: 2510 nM
[7]
  IC50: 55 nM
[8]
  IC50: 478 nM
KRas^G12D
  IC50: 265 nM

## CCc1c(F)ccc2cc(O)cc(-c3ncc4c(N5CCC[C@@](C)(O)C5)nc(OCC5(CN(C)C)C(C)C5C)nc4c3F)c12 (stereo partly drawn) [Example 818, (3R)-1-(2-((1-((dimethylamino)methyl)-2,3-dimethylcyclopropyl)methoxy)-7-(8-ethyl-7-fluoro-3-hydroxynaphthalen-1-yl)-8-fluoropyrido[4,3-d]pyrimidin-4-yl)-3-methylpiperidin-3-ol]
[1]
  IC50: 345 nM
[2]
  IC50: 347 nM
KRas^G12V
  IC50: 3 nM
[3]
  IC50: > 10000 nM
KRas^G12R
  IC50: 8 nM
[4]
  IC50: 135 nM
[5]
  IC50: 167 nM
[6]
  IC50: 212 nM
[7]
  IC50: 61 nM
[8]
  IC50: 121 nM
KRas^G12D
  IC50: 3 nM

## CCc1c(F)ccc2cc(O)cc(-c3ncc4c(N5CCC[C@@](C)(O)C5)nc(OC[C@@]56CCCN5[C@H](COC(C)C)CC6)nc4c3F)c12 [Example 895, (R)-1-(7-(8-ethyl-7-fluoro-3-hydroxynaphthalen-1-yl)-8-fluoro-2-(((3S,7aS)-3-(isopropoxymethyl)tetrahydro-1H-pyrrolizin-7a(5H)-yl)methoxy)pyrido[4,3-d]pyrimidin-4-yl)-3-methylpiperidin-3-ol]
[1]
  IC50: 79 nM
[2]
  IC50: 119 nM
KRas^G12V
  IC50: < 2 nM
[3]
  IC50: 905 nM
KRas^G12R
  IC50: < 2 nM
[4]
  IC50: 27 nM
[5]
  IC50: 42 nM
[6]
  IC50: 73 nM
[7]
  IC50: 11 nM
[8]
  IC50: 11 nM
KRas^G12D
  IC50: < 2 nM

## CCc1c(F)ccc2cc(O)cc(-c3ncc4c(N5CC6CCC(C5)C6CO)nc(OC[C@@]56CCCN5C[C@H](F)C6)nc4c3F)c12 (stereo partly drawn) [Example 845, 5-ethyl-6-fluoro-4-(8-fluoro-2-(((2R,7aS)-2-fluorotetrahydro-1H-pyrrolizin-7a(5H)-yl)methoxy)-4-((1R,5S,8S)-8-(hydroxymethyl)-3-azabicyclo[3.2.1]octan-3-yl)pyrido[4,3-d]pyrimidin-7-yl)naphthalen-2-ol]
[1]
  IC50: 159 nM
[2]
  IC50: 1150 nM
KRas^G12V
  IC50: 10 nM
[3]
  IC50: 3460 nM
KRas^G12R
  IC50: 11 nM
[4]
  IC50: 1570 nM
[5]
  IC50: 80 nM
[6]
  IC50: 1190 nM
[7]
  IC50: 64 nM
[8]
  IC50: 241 nM
KRas^G12D
  IC50: 41 nM

## CCc1c(F)ccc2cc(O)cc(-c3ncc4c(N5CC6CCC(C(=O)N(C)C)(C5)C6(F)F)nc(OC[C@@]56CCCN5C[C@H](F)C6)nc4c3F)c12 (stereo partly drawn) [Example 905, 3-(7-(8-ethyl-7-fluoro-3-hydroxynaphthalen-1-yl)-8-fluoro-2-(((2R,7aS)-2-fluorotetrahydro-1H-pyrrolizin-7a(5H)-yl)methoxy)pyrido[4,3-d]pyrimidin-4-yl)-8,8-difluoro-N,N-dimethyl-3-azabicyclo[3.2.1]octane-1-carboxamide]
[1]
  IC50: 6310 nM
[2]
  IC50: 7440 nM
KRas^G12V
  IC50: 394 nM
[3]
  IC50: > 10000 nM
KRas^G12R
  IC50: 94 nM
[4]
  IC50: 4150 nM
[5]
  IC50: 1350 nM
[6]
  IC50: 2610 nM
[7]
  IC50: 1140 nM
[8]
  IC50: 2700 nM
KRas^G12D
  IC50: 297 nM

## CCc1c(F)ccc2cc(O)cc(-c3ncc4c(N5CCC[C@@](C)(O)C5)nc(OC[C@@]56CCCN5[C@@H](CNS(=O)(=O)N(C)C)CC6)nc4c3F)c12 [Example 788, (R)-1-(7-(8-ethyl-7-fluoro-3-hydroxynaphthalen-1-yl)-8-fluoro-2-(((3R,7aS)-3-(((dimethylsulfamoyl)amino)methyl)tetrahydro-1H-pyrrolizin-7a(5H)-yl)methoxy)pyrido[4,3-d]pyrimidin-4-yl)-3-methylpiperidin-3-ol]
[1]; HCT-116, 3 h, single point, 100 nM compound, 3 hrs
  inhibition at 0.1 µM: 33%
[2]; NCI-H727, 3 h, single point, 100 nM compound, 3 hrs, H727 cells
  inhibition at 0.1 µM: 41%
[2]
  IC50: 211 nM
KRas^G12V
  IC50: < 2 nM
[3]
  IC50: 2840 nM
KRas^G12R
  IC50: 4 nM
[4]; ASPC1, 3 h, single point, 100 nM compound, 3 hrs, AsPC-1 cells
  inhibition at 0.1 µM: 45%
[4]
  IC50: 73 nM
[5]; NCI-H460, 3 h, single point, 100 nM compound, 3 hrs
  inhibition at 0.1 µM: 47%
[6]; A549, 3 h, single point, 100 nM compound, 3 hrs
  inhibition at 0.1 µM: 38%
[7]
  IC50: 13 nM
[8]; NCI-H358, 3 h, single point, 100 nM compound, 3 hrs
  inhibition at 0.1 µM: 75%
KRas^G12D
  IC50: 2 nM

## CCc1c(F)ccc2cc(O)cc(-c3ncc4c(N5CCC[C@@](C)(O)C5)nc(OC[C@@]56CCCN5[C@H](COCC5CC5)CC6)nc4c3F)c12 [Example 870, (R)-1-(2-(((3S,7aS)-3-((cyclopropylmethoxy)methyl)tetrahydro-1H-pyrrolizin-7a(5H)-yl)methoxy)-7-(8-ethyl-7-fluoro-3-hydroxynaphthalen-1-yl)-8-fluoropyrido[4,3-d]pyrimidin-4-yl)-3-methylpiperidin-3-ol]
[1]
  IC50: 49 nM
[2]
  IC50: 98 nM
KRas^G12V
  IC50: < 2 nM
[3]
  IC50: 1300 nM
KRas^G12R
  IC50: < 2 nM
[4]
  IC50: 51 nM
[5]
  IC50: 25 nM
[6]
  IC50: 66 nM
[7]
  IC50: 18 nM
[8]
  IC50: 10 nM
KRas^G12D
  IC50: < 2 nM

## CCc1c(F)ccc2cc(O)cc(-c3ncc4c(N5CCOC[C@]6(CCO6)C5)nc(OC[C@@]56CCCN5C[C@H](F)C6)nc4c3F)c12 [Example 837, 5-ethyl-6-fluoro-4-(8-fluoro-2-(((2R,7aS)-2-fluorotetrahydro-1H-pyrrolizin-7a(5H)-yl)methoxy)-4-((S)-1,6-dioxa-9-azaspiro[3.6]decan-9-yl)pyrido[4,3-d]pyrimidin-7-yl)naphthalen-2-ol]
[1]
  IC50: 45 nM
[2]
  IC50: 23 nM
KRas^G12V
  IC50: < 2 nM
[3]
  IC50: 2990 nM
KRas^G12R
  IC50: < 2 nM
[4]
  IC50: 4 nM
[5]
  IC50: 14 nM
[6]
  IC50: 11 nM
[7]
  IC50: 3 nM
[8]
  IC50: 6 nM
KRas^G12D
  IC50: < 2 nM
